Reference: patent US9834571B2, “Compounds for inhibiting cell proliferation in EGFR-driven cancers” (ARIAD Pharmaceuticals, Inc., priority 2012, dated 2017)

What was measured:
[1] = molecular target: T1, BaF3 cells expressing the target EGFR mutations (Homo sapiens, UniProt P00533, T790M/L858R, cells depend on it); experiment: Antiproliferative activity (MTT) against BaF3 cells expressing the target EGFR mutations; assay type: cell-based; conditions: BAF3 EGFR L858R-T790M PURO POOL cells, read-out: IC50, BAF3 EGFR L858R-T790M PURO POOL
T1 construct: IC50, BAF3 EGFR L858R-T790M PURO POOL; other: BAF3 EGFR L858R-T790M PURO POOL cells, MTT; IC50, BAF3 EGFR L858R-T790M PURO POOL; other: BAF3 EGFR L858R-T790M PURO POOL cells; MTT
Method in brief: (§1)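 Compounds were tested on BaF3 cells bearing target EGFR mutations and on control BaF3 cells with wildtype EGFR; viability was then determined by MTT.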

[2] = molecular target: T2, BaF3 cells expressing the target EGFR mutations (Homo sapiens, UniProt P00533, T790M, cells depend on it, form not given); experiment: as above; assay type: cell-based; conditions: BAF3 EGFR DEL T790M PURO POOL cells, read-out: IC50, BAF3 EGFR DEL T790M PURO POOL
T2 construct: IC50, BAF3 EGFR DEL T790M PURO POOL; other: BAF3 EGFR DEL T790M PURO POOL cells, MTT; other: BAF3 EGFR DEL T790M PURO POOL cells; MTT
Method in brief: as §1

[3] = system: BaF3 cells expressing wildtype EGFR; experiment: Antiproliferative activity (MTT) against control BaF3 cells expressing wildtype EGFR; assay type: cell-based; conditions: Mus musculus, BAF3 PARENTAL cells (control)
Method in brief: as §1

[4] = molecular target: human EGFR (native sequence) (Homo sapiens, UniProt P00533); experiment: Kinase inhibitory activity against human EGFR (native sequence); assay type: biochemical; conditions: human EGFR native sequence; 10 μM ATP; read-out: IC50 for kinase inhibition, EGFR
Method in brief: (§2)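 Testing covers a ten-concentration range beginning at 3 μM, performed once per concentration at an ATP level of 10 μM.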

EGFR L858R = EGFR L858R (Homo sapiens, UniProt P00533, L858R); experiment: Kinase inhibitory activity against EGFR bearing the L858R mutation; assay type: biochemical; conditions: EGFR L858R; 10 μM ATP; read-out: IC50 for kinase inhibition, EGFR L858R
Method in brief: as §2

EGFR L858R/T790M = EGFR L858R/T790M (Homo sapiens, UniProt P00533, L858R/T790M); experiment: Kinase inhibitory activity against EGFR bearing the L858R/T790M double mutation; assay type: biochemical; conditions: EGFR L858R/T790M double mutation; 10 μM ATP; read-out: IC50 for kinase inhibition, EGFR L858R T790M
Method in brief: as §2

Sequence of EGFR L858R (P00533 25-1210 L858R): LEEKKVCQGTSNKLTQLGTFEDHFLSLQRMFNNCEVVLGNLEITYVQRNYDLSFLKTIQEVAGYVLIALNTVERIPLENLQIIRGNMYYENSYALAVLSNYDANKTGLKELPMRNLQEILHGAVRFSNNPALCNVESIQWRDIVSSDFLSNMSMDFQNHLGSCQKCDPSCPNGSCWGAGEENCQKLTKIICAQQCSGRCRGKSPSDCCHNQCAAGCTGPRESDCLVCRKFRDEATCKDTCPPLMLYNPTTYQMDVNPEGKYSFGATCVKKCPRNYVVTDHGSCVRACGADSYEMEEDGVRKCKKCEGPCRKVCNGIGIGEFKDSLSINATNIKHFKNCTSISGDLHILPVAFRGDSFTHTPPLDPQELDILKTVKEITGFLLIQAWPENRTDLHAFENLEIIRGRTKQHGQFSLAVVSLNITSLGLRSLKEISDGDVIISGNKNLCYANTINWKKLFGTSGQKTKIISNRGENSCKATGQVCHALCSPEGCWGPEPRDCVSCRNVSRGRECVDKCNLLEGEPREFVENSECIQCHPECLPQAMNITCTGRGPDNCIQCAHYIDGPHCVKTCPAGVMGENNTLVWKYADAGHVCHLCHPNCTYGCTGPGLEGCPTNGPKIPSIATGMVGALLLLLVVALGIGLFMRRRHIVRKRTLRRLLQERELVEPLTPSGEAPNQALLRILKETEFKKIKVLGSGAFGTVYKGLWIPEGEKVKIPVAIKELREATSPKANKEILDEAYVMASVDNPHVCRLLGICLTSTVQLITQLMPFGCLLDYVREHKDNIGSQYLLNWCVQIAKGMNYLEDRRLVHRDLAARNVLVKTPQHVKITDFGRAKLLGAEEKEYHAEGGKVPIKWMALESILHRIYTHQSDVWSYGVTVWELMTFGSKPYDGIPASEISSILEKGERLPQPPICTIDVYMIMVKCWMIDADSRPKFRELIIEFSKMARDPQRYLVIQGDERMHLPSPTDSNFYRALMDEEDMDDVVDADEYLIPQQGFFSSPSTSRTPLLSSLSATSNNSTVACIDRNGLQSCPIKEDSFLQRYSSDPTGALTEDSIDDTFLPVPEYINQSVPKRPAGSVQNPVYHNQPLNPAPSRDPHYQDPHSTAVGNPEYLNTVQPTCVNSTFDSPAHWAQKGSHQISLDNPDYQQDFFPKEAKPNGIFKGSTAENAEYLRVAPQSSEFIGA
Sequence of EGFR L858R/T790M (P00533 25-1210 T790M/L858R): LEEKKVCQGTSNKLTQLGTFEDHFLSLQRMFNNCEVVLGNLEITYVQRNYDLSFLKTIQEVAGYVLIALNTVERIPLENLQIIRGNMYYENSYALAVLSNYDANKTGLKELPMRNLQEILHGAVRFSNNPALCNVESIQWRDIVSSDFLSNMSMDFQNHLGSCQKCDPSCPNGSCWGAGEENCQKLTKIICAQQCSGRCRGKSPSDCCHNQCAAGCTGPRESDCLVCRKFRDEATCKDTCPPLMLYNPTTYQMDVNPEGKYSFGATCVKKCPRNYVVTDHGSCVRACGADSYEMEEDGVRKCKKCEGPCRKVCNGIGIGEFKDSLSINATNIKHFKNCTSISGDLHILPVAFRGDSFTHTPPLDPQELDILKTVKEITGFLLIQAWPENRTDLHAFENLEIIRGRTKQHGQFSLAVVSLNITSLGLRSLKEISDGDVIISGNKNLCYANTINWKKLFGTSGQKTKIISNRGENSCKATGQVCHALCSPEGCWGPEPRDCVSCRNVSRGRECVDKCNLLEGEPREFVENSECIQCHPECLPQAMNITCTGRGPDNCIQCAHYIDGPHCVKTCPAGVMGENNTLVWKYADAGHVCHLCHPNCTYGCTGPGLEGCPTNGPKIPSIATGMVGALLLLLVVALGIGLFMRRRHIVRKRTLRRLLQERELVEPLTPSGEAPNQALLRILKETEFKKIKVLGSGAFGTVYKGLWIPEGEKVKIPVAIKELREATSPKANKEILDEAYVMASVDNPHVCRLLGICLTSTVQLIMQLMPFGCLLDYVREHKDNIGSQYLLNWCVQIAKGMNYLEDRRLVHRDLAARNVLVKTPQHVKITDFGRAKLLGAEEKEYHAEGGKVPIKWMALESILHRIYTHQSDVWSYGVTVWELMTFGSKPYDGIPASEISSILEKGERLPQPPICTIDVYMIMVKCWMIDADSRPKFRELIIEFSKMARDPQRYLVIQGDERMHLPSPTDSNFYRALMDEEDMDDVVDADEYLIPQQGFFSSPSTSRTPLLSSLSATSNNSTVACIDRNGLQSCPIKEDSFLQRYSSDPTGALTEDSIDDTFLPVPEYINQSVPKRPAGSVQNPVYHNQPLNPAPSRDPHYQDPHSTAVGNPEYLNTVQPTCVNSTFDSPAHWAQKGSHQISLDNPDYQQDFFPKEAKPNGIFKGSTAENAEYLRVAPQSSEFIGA
T2 sequence (P00533 with tags, fused parts or gaps DEL746-750/T790M, form open): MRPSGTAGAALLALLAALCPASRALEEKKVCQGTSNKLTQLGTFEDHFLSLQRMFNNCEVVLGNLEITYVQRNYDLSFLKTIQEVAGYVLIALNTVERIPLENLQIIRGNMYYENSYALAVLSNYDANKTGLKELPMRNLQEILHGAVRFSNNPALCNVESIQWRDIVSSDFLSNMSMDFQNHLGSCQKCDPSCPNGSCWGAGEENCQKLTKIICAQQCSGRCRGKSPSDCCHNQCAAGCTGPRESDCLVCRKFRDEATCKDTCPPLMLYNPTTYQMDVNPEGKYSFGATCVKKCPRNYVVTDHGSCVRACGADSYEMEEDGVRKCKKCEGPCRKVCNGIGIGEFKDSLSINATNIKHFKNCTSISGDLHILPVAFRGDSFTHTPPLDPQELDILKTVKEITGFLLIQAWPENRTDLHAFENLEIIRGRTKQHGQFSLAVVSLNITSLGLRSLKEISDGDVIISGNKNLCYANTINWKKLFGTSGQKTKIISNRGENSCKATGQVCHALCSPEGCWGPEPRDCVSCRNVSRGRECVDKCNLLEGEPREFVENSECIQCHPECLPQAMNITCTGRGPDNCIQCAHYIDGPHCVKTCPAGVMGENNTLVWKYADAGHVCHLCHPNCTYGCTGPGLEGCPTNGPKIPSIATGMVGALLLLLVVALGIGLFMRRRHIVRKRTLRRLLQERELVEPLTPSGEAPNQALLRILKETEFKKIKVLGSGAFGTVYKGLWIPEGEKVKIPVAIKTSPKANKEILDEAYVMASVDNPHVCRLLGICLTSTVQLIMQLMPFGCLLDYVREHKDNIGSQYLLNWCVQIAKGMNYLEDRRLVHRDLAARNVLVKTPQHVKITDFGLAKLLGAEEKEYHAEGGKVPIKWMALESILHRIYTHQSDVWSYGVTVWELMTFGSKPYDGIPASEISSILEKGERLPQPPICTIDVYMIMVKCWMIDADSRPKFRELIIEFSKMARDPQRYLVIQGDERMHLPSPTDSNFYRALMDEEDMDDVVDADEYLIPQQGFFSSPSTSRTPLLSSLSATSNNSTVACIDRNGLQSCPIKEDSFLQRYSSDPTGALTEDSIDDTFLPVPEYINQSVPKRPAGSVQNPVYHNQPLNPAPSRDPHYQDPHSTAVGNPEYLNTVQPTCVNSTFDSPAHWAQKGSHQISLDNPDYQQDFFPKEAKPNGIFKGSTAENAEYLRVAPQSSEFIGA
T1 sequence (P00533 whole entry T790M/L858R): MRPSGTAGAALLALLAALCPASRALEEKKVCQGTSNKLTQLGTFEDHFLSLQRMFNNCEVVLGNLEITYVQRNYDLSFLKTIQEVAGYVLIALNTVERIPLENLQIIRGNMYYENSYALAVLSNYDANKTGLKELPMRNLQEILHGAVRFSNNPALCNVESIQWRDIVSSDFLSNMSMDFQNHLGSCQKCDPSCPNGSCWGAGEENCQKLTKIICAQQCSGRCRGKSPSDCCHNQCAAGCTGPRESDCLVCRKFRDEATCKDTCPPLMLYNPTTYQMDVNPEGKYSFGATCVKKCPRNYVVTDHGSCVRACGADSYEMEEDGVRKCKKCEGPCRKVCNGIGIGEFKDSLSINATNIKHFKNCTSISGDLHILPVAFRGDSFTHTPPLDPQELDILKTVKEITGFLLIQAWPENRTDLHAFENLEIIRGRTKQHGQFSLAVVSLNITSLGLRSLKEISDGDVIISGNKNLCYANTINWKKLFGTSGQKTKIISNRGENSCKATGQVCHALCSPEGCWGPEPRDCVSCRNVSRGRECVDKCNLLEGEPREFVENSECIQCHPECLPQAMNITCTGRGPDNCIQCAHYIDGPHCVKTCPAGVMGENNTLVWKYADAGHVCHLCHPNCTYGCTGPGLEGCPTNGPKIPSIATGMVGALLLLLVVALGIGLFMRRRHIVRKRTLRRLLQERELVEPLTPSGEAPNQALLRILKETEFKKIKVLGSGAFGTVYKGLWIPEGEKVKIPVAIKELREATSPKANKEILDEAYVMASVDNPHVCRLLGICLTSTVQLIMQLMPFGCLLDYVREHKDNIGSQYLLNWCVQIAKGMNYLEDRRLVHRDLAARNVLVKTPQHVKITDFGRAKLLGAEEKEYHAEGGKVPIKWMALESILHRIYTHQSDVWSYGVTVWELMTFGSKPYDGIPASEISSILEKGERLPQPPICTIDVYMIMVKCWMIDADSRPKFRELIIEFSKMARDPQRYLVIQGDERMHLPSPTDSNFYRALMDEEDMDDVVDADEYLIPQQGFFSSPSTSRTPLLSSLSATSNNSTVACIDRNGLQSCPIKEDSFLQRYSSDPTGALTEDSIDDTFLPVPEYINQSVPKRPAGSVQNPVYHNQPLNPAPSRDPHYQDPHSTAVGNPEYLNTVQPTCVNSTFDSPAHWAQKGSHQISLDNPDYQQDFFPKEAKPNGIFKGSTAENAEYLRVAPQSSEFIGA

SMILES | GI50 [1] [nM] | GI50 [2] [nM] | IC50 [3] [nM] | IC50 [4] [nM] | IC50 (EGFR L858R) [nM] | IC50 (EGFR L858R/T790M) [nM]
C=CC(=O)Nc1cc(Nc2ncc(Cl)c(Nc3ccccc3P(C)(C)=O)n2)c(OC)cc1C#CC1(N(C)C)CC1 [Example 73, N-(5-((5-chloro-4-((2-(dimethylphosphoryl)phenyl)amino)pyrimidin-2-yl)amino)-2-((1-(dimethylamino)cyclopropyl)ethynyl)-4-methoxyphenyl)acrylamide] | 101 to 250 | 101 to 250 | ≥ 250 | ≥ 250 | < 50 | < 50
C=CC(=O)Nc1cc(Nc2ncc(Cl)c(Nc3ccccc3P(C)(C)=O)n2)c(OC)cc1CCN1CCN(C)CC1 [Example 74, N-(5-((5-chloro-4-((2-(dimethylphosphoryl)phenyl)amino)pyrimidin-2-yl)amino)-4-methoxy-2-(2-(4-methylpiperazin-1-yl)ethyl)phenyl)acrylamide] | ≥ 250 | 101 to 250 | ≥ 250 | < 50 | < 50 | < 50
CCOC(=O)/C=C/C(=O)Nc1ccc(OC)c(Nc2ncc(Cl)c(Nc3ccccc3P(C)(C)=O)n2)c1 [Example 75, (E)-ethyl 4-((3-((5-chloro-4-((2-(dimethylphosphoryl)phenyl)amino)pyrimidin-2-yl)amino)-4-methoxyphenyl)amino)-4-oxobut-2-enoate] | < 50 | < 50 | ≥ 250 | < 50 | < 50 | < 50
COc1ccc(NC(=O)/C=C/C2(NC(=O)OC(C)(C)C)CC2)cc1Nc1ncc(Cl)c(Nc2ccccc2P(C)(C)=O)n1 [Example 76, (E)-tert-butyl (1-(3-((3-((5-chloro-4-((2-(dimethylphosphoryl)phenyl)amino)pyrimidin-2-yl)amino)-4-methoxyphenyl)amino)-3-oxoprop-1-en-1-yl)cyclopropyl)carbamate] | ≥ 250 | ≥ 250 | ≥ 250 | ≥ 250 | ≥ 250 | ≥ 250
C=C(F)C(=O)Nc1ccc(OC)c(Nc2ncc(Cl)c(Nc3ccccc3P(C)(C)=O)n2)c1 [Example 77, N-(3-((5-chloro-4-((2-(dimethylphosphoryl)phenyl)amino)pyrimidin-2-yl)amino)-4-methoxyphenyl)-2-fluoroacrylamide] | 50 to 100 | < 50 | ≥ 250 | ≥ 250 | < 50 | 50 to 100
COc1ccc(NC(=O)/C=C/Cl)cc1Nc1ncc(Cl)c(Nc2ccccc2P(C)(C)=O)n1 [Example 78, (E)-3-chloro-N-(3-((5-chloro-4-((2-(dimethylphosphoryl)phenyl)amino)pyrimidin-2-yl)amino)-4-methoxyphenyl)acrylamide] | < 50 | < 50 | ≥ 250 | < 50 | < 50 | < 50
COc1ccc(NC(=O)C2=CCCCC2)cc1Nc1ncc(Cl)c(Nc2ccccc2P(C)(C)=O)n1 [Example 79, N-(3-((5-chloro-4-((2-(dimethylphosphoryl)phenyl)amino)pyrimidin-2-yl)amino)-4-methoxyphenyl)cyclohex-1-enecarboxamide] | ≥ 250 | ≥ 250 | ≥ 250 | ≥ 250 | ≥ 250 | ≥ 250
CC#CC(=O)Nc1cc(Nc2ncc(Cl)c(Nc3ccccc3P(C)(C)=O)n2)c(OC)cc1OCCN1CCCC1 [Example 80, N-(5-((5-chloro-4-((2-(dimethylphosphoryl)phenyl)amino)pyrimidin-2-yl)amino)-4-methoxy-2-(2-(pyrrolidin-1-yl)ethoxy)phenyl)but-2-ynamide] | 101 to 250 | < 50 | ≥ 250 | ≥ 250 | < 50 | < 50
